Assay results reported in patent publication US9408915B2, “Tolvaptan solid dispersion and its preparation method” (Jiangsu Hengrui Medicine Co., Ltd., priority 2010, dated 2016).

What was measured:
[1] = Dissolution test (paddle blade method, 0.2% w/v sodium dodecylsulfate aqueous solution); assay type: physicochemical; conditions: powder equal to 100 mg tolvaptan, paddle 100 rpm
Description: Q.S. (the amount is equal to 100 mg of tolvaptan) of the powder prepared in Examples 1-10, Comparative examples and the control (crystal material with a particle diameter distribution of 1400 μm and an average diameter of 83 μm) were added to the dissolution tester. 0.2% w/v sodium dodecylsulfate aqueous solution was used as the solvent. The dissolution test was performed using the paddle blade method with the rotation speed of 100 rpm. A sample was taken at 5 min, 10 min, 15 min, 20 min, 30 min, and 45 min to determine the absorbance and calculate the dissolution rate.
The determination of the dissolution rate (%) is as follows: dissolve a certain amount of tolvaptan in methanol; transfer 5 ml of the solution to a 100-ml volumetric flask and then dilute with 0.2% (w/v) sodium dodecylsulfate aqueous solution to give a 20 μg/ml standard solution; the absorbance of the standard solution and the sample solution was determined at wavelengths of 269 nm and 330 nm. The dissolution rate can be obtained by the ratio of the difference of the absorbance of standard solution and the control and the difference of the absorbance of the sample solution and control.

[2] = white crystal or crystalline powder; cited from earlier work

Row | Compound | dissolution rate ([1]; 5 min) | dissolution rate ([1]; 10 min) | dissolution rate ([1]; 15 min) | dissolution rate ([1]; 20 min) | dissolution rate ([1]; 30 min) | dissolution rate ([1]; 45 min) | solubility in water [2]
1 | Cc1ccccc1C(=O)Nc1ccc(C(=O)N2CCC[C@@H](O)c3cc(Cl)ccc32)c(C)c1 [compound 1] | 15.9% | 19.1% | 22.2% | 25.8% | 30.7% | 42.8% | –
2 | Cc1ccccc1C(=O)Nc1ccc(C(=O)N2CCC[C@@H](O)c3cc(Cl)ccc32)c(C)c1 [Tolvaptan, 7-chloro-5-hydroxy-1-[2-methyl-4-(2-methylbenzoylamino)benzoyl]-2,3,4,5,-tetrohydro-1H-benzoazepine] | – | – | – | – | – | – | only slightly soluble in water
